Results from patent US10442788B2, “Hepatitis B antiviral agents” (ENANTA PHARMACEUTICALS, INC., priority 2015, dated 2019).

What follows are compounds tested on HBV (assay: HepAD38 antiviral assay: reduction of viral product accumulation (virion DNA by qPCR, HBsAg or HBeAg by ELISA)). Settings: Hepatitis B virus, 120 h; HepAD38 cells, five days after compound addition; 50% reduction of viral product accumulation relative to no drug controls; read-out: HepAD38 EC50.
Format: cell-based
Procedure: Methods: HepAD38 cells are maintained as previously reported (Ladner et al, Antimicrob. Agents Chemother. 1997, […], 1715). Briefly, cells are passaged upon attaining confluency in DMEM/F12 media in the presence of 10% FBS, Penn/Strep, 250 μg/mL G418, and 1 ug/ml tetracycline. Novel compounds are screened by first washing cells three times with PBS to remove tetracycline, and plating in 96 well plates at 35,000 cells/well. Compounds dissolved in DMSO are then diluted 1:200 into wells containing cells. Five days after compound addition, material is harvested for analysis. For an extended 8 day analysis, cells are plated and treated as described above, but media and compound are refreshed on d2 and d5 post initial treatment.
On harvest day, virion DNA is obtained by lysing with Sidestep Lysis and Stabilization Buffer and then quantified via quantitative real time PCR. Commercially available ELISA kits are used to quantitate the viral proteins HBsAg (Alpco) or HbeAg (US Biological) by following the manufacturer's recommended protocol after diluting samples to match the linear range of their respective assays. Irrespective of readout, compound concentrations that reduce viral product accumulation in the cell lysates or supernatants by 50% relative to no drug controls (EC50) are reported; EC50 ranges are as follows: A<1 μM; B 1-10 μM; C>10 μM.

O=S(=O)(c1cc(-c2nc(-c3ccc(Br)c(F)c3)c[nH]2)ccc1Cl)N1CCN(c2ccncc2)CC1 [Example 196] and O=S(=O)(c1cc(-c2nc(-c3ccc(Br)c(F)c3)c[nH]2)ccc1Cl)N1CCN(c2cc(F)ccn2)CC1 [Example 205] cannot be ordered by EC50: under 1000 nM for the first, under 1000 nM for the second.

O=S(=O)(c1cc(-c2nc(-c3ccc(F)c(Br)c3)c(F)[nH]2)ccc1Cl)N1CCC(O)CC1 [Example 197] and O=S(=O)(c1cc(-c2nc(-c3ccc(Br)c(F)c3)c[nH]2)ccc1Cl)N1CCC[C@@H](O)CC1 [Example 234] cannot be ordered by EC50: under 1000 nM for the first, under 1000 nM for the second.

CC(C)(C)OC(=O)N[C@H]1C[C@H](NS(=O)(=O)c2cc(-c3nc(-c4ccc(Br)c(F)c4)c[nH]3)ccc2Cl)C1 [Example 198] and CC(C)(C)OC(=O)NCC1CCN(S(=O)(=O)c2cc(-c3nc(-c4ccc(Br)c(F)c4)c[nH]3)ccc2Cl)C1 (centres unmarked) [Example 199] cannot be ordered by EC50: under 1000 nM for the first, under 1000 nM for the second.

CN(C)CC(=O)NCCCNS(=O)(=O)c1cc(-c2nc(-c3ccc(Br)c(F)c3)c[nH]2)ccc1Cl [Example 200] and COC(=O)NCC(=O)NCCCNS(=O)(=O)c1cc(-c2nc(-c3ccc(Br)c(F)c3)c[nH]2)ccc1Cl [Example 201] fall in the same range of EC50: 1000 to 10000 nM for the first, 1000 to 10000 nM for the second.

Going from COc1ccc(-c2c[nH]c(-c3ccc(Cl)c(S(=O)(=O)N4CCC(O)CC4)c3)n2)cc1Cl [Example 202] to COc1cc(-c2c[nH]c(-c3ccc(Cl)c(S(=O)(=O)N4CCC(O)CC4)c3)n2)ccc1Cl [Example 216], the EC50 falls from over 10000 nM to under 1000 nM. The second is the more potent here.

First: [2H]C([2H])([2H])Oc1cccc(-c2c[nH]c(-c3ccc(Cl)c(S(=O)(=O)N4CCC(O)CC4)c3)n2)c1 [Example 203]
Second: [2H]C([2H])([2H])Oc1ccc(-c2c[nH]c(-c3ccc(Cl)c(S(=O)(=O)N4CCC(O)CC4)c3)n2)cc1 [Example 217]
The EC50 of the first is higher: over 10000 nM for the first, 1000 to 10000 nM for the second.

Going from [2H]C([2H])([2H])Oc1cc(-c2c[nH]c(-c3ccc(Cl)c(S(=O)(=O)N4CCC(O)CC4)c3)n2)ccc1F [Example 204] to O=S(=O)(c1cc(-c2nc(-c3ccc(F)c(C(F)F)c3)c[nH]2)ccc1Cl)N1CCC(O)CC1 [Example 248], the EC50 rises from under 1000 nM to over 10000 nM. The first is the more potent here.

First: O=C(Nc1ccccc1)N1CCN(S(=O)(=O)c2cc(-c3nc(-c4ccc(Br)c(F)c4)c[nH]3)ccc2Cl)CC1 [Example 206]
Second: O=S(=O)(c1cc(-c2nc(-c3ccc(Br)c(F)c3)c[nH]2)ccc1Cl)N1CCN(c2ccc(F)cn2)CC1 [Example 219]
The EC50 of the first is higher: over 10000 nM for the first, under 1000 nM for the second.

First: O=P(O)(O)OC1CCN(S(=O)(=O)c2cc(-c3nc(-c4ccc(F)c(Br)c4)c[nH]3)ccc2Cl)CC1 [Example 207]
Second: O=S(=O)(c1cc(-c2nc(-c3ccc(Br)c(F)c3)c[nH]2)ccc1Cl)N1CCC[C@H](O)CC1 [Example 235]
The EC50 of the first is higher: 1000 to 10000 nM for the first, under 1000 nM for the second. The second is the more potent here.

C[C@@H]1CN(S(=O)(=O)c2cc(-c3ncc(-c4ccc(Br)c(F)c4)[nH]3)ccc2Cl)CC[C@H]1O [Example 208] and O=S(=O)(c1cc(-c2ncc(-c3ccc(Br)c(F)c3)[nH]2)ccc1Cl)N1CC[C@H](O)[C@H](O)C1 [Example 230] cannot be ordered by EC50: under 1000 nM for the first, under 1000 nM for the second.

First: CC1CC(O)CCN1S(=O)(=O)c1cc(-c2ncc(-c3ccc(Br)c(F)c3)[nH]2)ccc1Cl (centres unmarked) [Example 209]
Second: O=S(=O)(c1cc(-c2ncc(-c3ccc(Br)c(F)c3)[nH]2)ccc1Cl)N1CC[C@@H](O)C1 [Example 247]
The EC50 of the first is lower: under 1000 nM for the first, over 10000 nM for the second.

CC(C)(O)C1CN(S(=O)(=O)c2cc(-c3ncc(-c4ccc(Br)c(F)c4)[nH]3)ccc2Cl)C1 [Example 210] and O=S(=O)(c1cc(-c2ncc(-c3ccc(Br)c(F)c3)[nH]2)ccc1Cl)N1C[C@@H](O)[C@@H](O)C1 [Example 228] cannot be ordered by EC50: under 1000 nM for the first, under 1000 nM for the second.

First: O=S(=O)(N[C@H]1C[C@@H](O)C1)c1cc(-c2ncc(-c3ccc(Br)c(F)c3)[nH]2)ccc1Cl [Example 211]
Second: O=S(=O)(NC1CC(O)C1)c1cc(-c2ncc(-c3ccc(Br)c(F)c3)[nH]2)ccc1Cl (centres unmarked) [Example 223]
The EC50 of the first is lower: under 1000 nM for the first, 1000 to 10000 nM for the second.

O=S(=O)(N[C@H]1CC[C@H](O)CC1)c1cc(-c2ncc(-c3ccc(Br)c(F)c3)[nH]2)ccc1Cl [Example 212] and O=S(=O)(N[C@H]1CC[C@@H](O)CC1)c1cc(-c2ncc(-c3ccc(Br)c(F)c3)[nH]2)ccc1Cl [Example 227] cannot be ordered by EC50: under 1000 nM for the first, under 1000 nM for the second.

O=S(=O)(NC[C@H](O)CO)c1cc(-c2ncc(-c3ccc(Br)c(F)c3)[nH]2)ccc1Cl [Example 213] and O=S(=O)(NC[C@@H](O)CO)c1cc(-c2ncc(-c3ccc(Br)c(F)c3)[nH]2)ccc1Cl [Example 214] cannot be ordered by EC50: under 1000 nM for the first, under 1000 nM for the second.

First: O=S(=O)(NCCCCc1nnn[nH]1)c1cc(-c2nc(-c3ccc(Br)c(F)c3)c[nH]2)ccc1Cl [Example 215]
Second: O=S(=O)(NCCCNc1ncco1)c1cc(-c2nc(-c3ccc(Br)c(F)c3)c[nH]2)ccc1Cl [Example 237]
The EC50 of the first is higher: over 10000 nM for the first, under 1000 nM for the second.

Compared with O=S(=O)(c1cc(-c2nc(-c3ccc(Br)c(F)c3)c[nH]2)ccc1Cl)N1CCC(c2ccccn2)CC1 [Example 220], O=S(=O)(c1cc(-c2nc(-c3ccc(Br)c(F)c3)c[nH]2)ccc1Cl)N1CC=C(c2ccccn2)CC1 [Example 221] is higher in EC50: under 1000 nM for the first, 1000 to 10000 nM for the second.

First: O=S(=O)(c1cc(-c2nc(-c3ccc(Br)c(F)c3)c[nH]2)ccc1Cl)N1CCN(S(=O)(=O)C2CC2)CC1 [Example 222]
Second: O=S(=O)(c1cc(-c2nc(-c3ccc(Br)c(F)c3)c[nH]2)ccc1Cl)N1CCN(C2CCCCC2F)CC1 (centres unmarked) [Example 249]
The EC50 of the first is higher: over 10000 nM for the first, under 1000 nM for the second.

CC(C)(O)CNS(=O)(=O)c1cc(-c2ncc(-c3ccc(Br)c(F)c3)[nH]2)ccc1Cl [Example 224] and CC(C)(O)CCNS(=O)(=O)c1cc(-c2ncc(-c3ccc(Br)c(F)c3)[nH]2)ccc1Cl [Example 225] cannot be ordered by EC50: under 1000 nM for the first, under 1000 nM for the second.

O=S(=O)(c1cc(-c2ncc(-c3ccc(Br)c(F)c3)[nH]2)ccc1Cl)N1CCC[C@H](O)C1 [Example 226] and O=S(=O)(c1cc(-c2ncc(-c3ccc(Br)c(F)c3)[nH]2)ccc1Cl)N1CC[C@H](O)[C@@H](O)C1 [Example 231] cannot be ordered by EC50: under 1000 nM for the first, under 1000 nM for the second.

O=S(=O)(c1cc(-c2ncc(-c3ccc(Br)c(F)c3)[nH]2)ccc1Cl)N1C[C@@H](O)[C@H](O)C1 [Example 229] and O=S(=O)(c1cc(-c2ncc(-c3ccc(Br)c(F)c3)[nH]2)ccc1Cl)N1C[C@@H]2[C@@H](O)[C@@H]2C1 [Example 243] cannot be ordered by EC50: under 1000 nM for the first, under 1000 nM for the second.

O=S(=O)(c1cc(-c2nc(-c3ccc(Br)c(F)c3)c[nH]2)ccc1Cl)N1CCCC[C@H](O)C1 [Example 232] and O=S(=O)(c1cc(-c2nc(-c3ccc(Br)c(F)c3)c[nH]2)ccc1Cl)N1CCCC[C@@H](O)C1 [Example 233] cannot be ordered by EC50: under 1000 nM for the first, under 1000 nM for the second.

COC(=O)NCCCN(CCCO)S(=O)(=O)c1cc(-c2nc(-c3ccc(Br)c(F)c3)c[nH]2)ccc1Cl [Example 236] and COC(=O)NCCCCCCNS(=O)(=O)c1cc(-c2nc(-c3ccc(Br)c(F)c3)c[nH]2)ccc1Cl [Example 241] cannot be ordered by EC50: under 1000 nM for the first, under 1000 nM for the second.

O=S(=O)(c1cc(-c2nc(-c3ccc(CC(F)(F)F)cc3)c[nH]2)ccc1Cl)N1CCC(O)CC1 [Example 238] and O=S(=O)(c1cc(-c2nc(-c3cccc(CC(F)(F)F)c3)c[nH]2)ccc1Cl)N1CCC(O)CC1 [Example 239] cannot be ordered by EC50: over 10000 nM for the first, over 10000 nM for the second.

COC1CCCCC1N1CCN(S(=O)(=O)c2cc(-c3nc(-c4ccc(Br)c(F)c4)c[nH]3)ccc2Cl)CC1 (centres unmarked) [Example 240] and O=S(=O)(c1cc(-c2nc(-c3ccc(Br)c(F)c3)c[nH]2)ccc1Cl)N1CCN([C@@H]2CCCC[C@H]2O)CC1 [Example 250] cannot be ordered by EC50: under 1000 nM for the first, under 1000 nM for the second.

CC(C)(C)OC(=O)NCCCCCCNS(=O)(=O)c1cc(-c2nc(-c3ccc(Br)c(F)c3)c[nH]2)ccc1Cl [Example 242] and CC(C)(C)OC(=O)NCCCCCCCNS(=O)(=O)c1cc(-c2nc(-c3ccc(Br)c(F)c3)c[nH]2)ccc1Cl [Example 252] cannot be ordered by EC50: under 1000 nM for the first, under 1000 nM for the second.

C[C@@H]1CCN(S(=O)(=O)c2cc(-c3nc(-c4ccc(Br)c(F)c4)c[nH]3)ccc2Cl)C[C@@H]1O [Example 244] and C[C@H]1CCN(S(=O)(=O)c2cc(-c3nc(-c4ccc(Br)c(F)c4)c[nH]3)ccc2Cl)C[C@@H]1O [Example 245] cannot be ordered by EC50: under 1000 nM for the first, under 1000 nM for the second.

COC(=O)NCCCCCCCNS(=O)(=O)c1cc(-c2nc(-c3ccc(Br)c(F)c3)c[nH]2)ccc1Cl [Example 251] and O=S(=O)(c1cc(-c2nc(-c3ccc(Br)c(F)c3)c[nH]2)ccc1Cl)N1CC(O)C(CO)C1 (centres unmarked) [Example 255] cannot be ordered by EC50: under 1000 nM for the first, under 1000 nM for the second.

O=S(=O)(c1cc(-c2nc(-c3ccc(Br)c(F)c3)c[nH]2)ccc1Cl)N1CC[C@@H](CO)C1 [Example 253] and O=S(=O)(c1cc(-c2nc(-c3ccc(Br)c(F)c3)c[nH]2)ccc1Cl)N1CC[C@H](CO)C1 [Example 254] cannot be ordered by EC50: under 1000 nM for the first, under 1000 nM for the second.

O=S(=O)(c1cc(-c2ncc(-c3ccc(Br)c(F)c3)[nH]2)ccc1Cl)N1CCC2(O)CC2C1 (centres unmarked) [Example 256] and O=S(=O)(c1cc(-c2ncc(-c3ccc(Br)c(F)c3)[nH]2)ccc1Cl)N1CCC2CC2(O)C1 (centres unmarked) [Example 257] cannot be ordered by EC50: under 1000 nM for the first, under 1000 nM for the second.

CC1(C)CN(S(=O)(=O)c2cc(-c3ncc(-c4ccc(Br)c(F)c4)[nH]3)ccc2Cl)CCC1O (centres unmarked) [Example 258] and O=S(=O)(c1cc(-c2nc(-c3ccc(Br)c(F)c3)c[nH]2)ccc1Cl)N1C[C@H](O)[C@@H](O)C1 [Example 259] cannot be ordered by EC50: under 1000 nM for the first, under 1000 nM for the second.
